According to BindingDB's records for patent US9815850 (Denali Therapeutics Inc., 2017):

Target: T1, Receptor-interacting serine/threonine-protein kinase 1 (Homo sapiens, UniProt Q13546)
T1 sequence (Q13546 whole entry): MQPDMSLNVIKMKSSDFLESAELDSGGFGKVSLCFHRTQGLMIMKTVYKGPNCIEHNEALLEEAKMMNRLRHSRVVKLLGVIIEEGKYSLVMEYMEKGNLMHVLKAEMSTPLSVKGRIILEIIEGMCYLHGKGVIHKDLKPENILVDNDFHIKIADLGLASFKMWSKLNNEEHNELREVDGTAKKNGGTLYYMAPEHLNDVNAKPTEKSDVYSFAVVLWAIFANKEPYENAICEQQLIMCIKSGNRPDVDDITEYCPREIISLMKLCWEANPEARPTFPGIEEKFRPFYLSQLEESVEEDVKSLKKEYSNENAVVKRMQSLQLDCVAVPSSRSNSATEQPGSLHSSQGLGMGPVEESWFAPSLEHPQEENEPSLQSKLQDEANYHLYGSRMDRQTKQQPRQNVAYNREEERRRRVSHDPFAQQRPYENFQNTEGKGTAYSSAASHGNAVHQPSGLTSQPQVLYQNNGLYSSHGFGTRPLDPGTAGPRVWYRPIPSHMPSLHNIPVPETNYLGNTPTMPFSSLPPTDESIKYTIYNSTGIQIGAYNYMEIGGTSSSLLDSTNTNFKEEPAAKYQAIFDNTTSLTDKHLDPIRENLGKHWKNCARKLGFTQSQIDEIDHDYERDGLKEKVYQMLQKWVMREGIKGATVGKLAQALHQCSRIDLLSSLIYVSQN
Test: Fluorescent Polarization Binding (FP Binding) assay
Excerpt: For negative control the enzyme addition was replaced by assay buffer only.

O=C(N[C@H]1COc2ccccc2-n2cnnc21)c1cc(Cc2ccccc2)[nH]n1 [US9815850, Compound 70A]
IC50: in the range around 500 nM
